Measurements from US20230339886A1 (University of Florida Research Foundation, Incorporated, priority 2020, published 2023).

biological target: T1, REV-ERBα LBD (human; residues 281-614 Δ324-422) (Homo sapiens, UniProt P20393, DEL324-422); test: TR-FRET corepressor interaction assay (REV-ERBα LBD, FITC-SMRT peptide); type: biochemical; details: FITC-SMRT peptide, read-out: REVERBα agonism (EC50 class, FRET assay)
T1 construct: 6×Histag-REV-ERBα LBD (human; residues 281-614 Δ324-422); made in house; host or cells: Escherichia coli
Procedure, shortened: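 Compound serial dilutions (in DMSO, triplicate) incubated 2 h at 4 °C; Tb donor excited at 340 nm, emission read at 495 nm and FITC acceptor at 520 nm. TR-FRET ratio (520/495 nm) plotted against ligand concentration and fitted to a sigmoidal dose-response curve.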

T1 sequence (P20393 with tags, fused parts or gaps DEL324-422): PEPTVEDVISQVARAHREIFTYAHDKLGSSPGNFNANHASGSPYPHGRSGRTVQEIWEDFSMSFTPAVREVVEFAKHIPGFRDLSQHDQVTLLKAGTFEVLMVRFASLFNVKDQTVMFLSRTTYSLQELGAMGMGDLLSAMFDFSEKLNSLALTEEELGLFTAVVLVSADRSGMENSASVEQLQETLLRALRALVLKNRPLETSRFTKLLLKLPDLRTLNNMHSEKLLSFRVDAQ
T1 sequence (Q9Y618 2335-2356 partner limits assumed): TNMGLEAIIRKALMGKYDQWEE

SMILES | EC50 [nM]
CC(C)(C)Cn1cc(CCNS(=O)(=O)C2CC2)c2ccc(-c3cccc(C(F)(F)F)c3Cl)cc21 [Example 485, N-(2-(6-(2-chloro-3-(trifluoromethyl)phenyl)-1-neopentyl-1H-indol-3-yl)ethyl)cyclopropanesulfonamide] | 500 to 3000
CC(C)(C)Cn1cc(CCNS(=O)(=O)C2CC2)c2ccc(-c3cccc(C#N)c3Cl)cc21 [Example 486, N-(2-(6-(2-chloro-3-cyanophenyl)-1-neopentyl-1H-indol-3-yl)ethyl)cyclopropanesulfonamide] | 500 to 3000
CC(C)(C)Cc1cn(CCNS(=O)(=O)C2CC2)c2ccc(-c3ccc(C(F)(F)F)cc3C#N)cc12 [Example 487, N-(2-(5-(2-cyano-4-(trifluoromethyl)phenyl)-3-neopentyl-1H-indol-1-yl)ethyl)cyclopropanesulfonamide] | 500 to 3000
CC(C)(CO)Cn1cc([C@H](NS(=O)(=O)C2CC2)C(F)(F)F)c2cc(F)c(-c3ccccc3C(F)(F)F)cc21 [Example 490, N-[(1S)-2,2,2-trifluoro-1-[5-fluoro-1-(3-hydroxy-2,2-dimethyl-propyl)-6-[2-(trifluoromethyl)phenyl]indol-3-yl]ethyl]cyclopropanesulfonamide] | 500 to 3000
CC(C)Cn1cc(C(CS(=O)(=O)C2CC2)C(F)(F)F)c2ccc(-c3ccccc3C(F)(F)F)cc21 (stereo not drawn) [Example 498, 3-(3-(cyclopropylsulfonyl)-1,1,1-trifluoropropan-2-yl)-1-isobutyl-6-(2-(trifluoromethyl)phenyl)-1H-indole] | 500 to 3000
CC(NS(=O)(=O)C1CCC1)c1cn(CC(C)(C)C)c2cc(-c3ccccc3C(F)(F)F)ccc12 (stereo not drawn) [Example 507, N-(1-(1-neopentyl-6-(2-(trifluoromethyl)phenyl)-1H-indol-3-yl)ethyl)cyclobutanesulfonamide] | < 500
CC(NS(=O)(=O)C1CCC1)c1cn(CC(C)(C)C)c2cc(-c3ccccc3C(F)(F)F)c(F)cc12 (stereo not drawn) [Example 508, N-(1-(5-fluoro-1-neopentyl-6-(2-(trifluoromethyl)phenyl)-1H-indol-3-yl)ethyl)cyclobutanesulfonamide] | < 500
[2H]C([2H])([2H])C(NS(=O)(=O)C1CCC1)c1cn(CC(C)(C)C)c2cc(-c3ccccc3C(F)(F)F)ccc12 (stereo not drawn) [Example 509, N-(1-(1-neopentyl-6-(2-(trifluoromethyl)phenyl)-1H-indol-3-yl)ethyl-2,2,2-d3)cyclobutanesulfonamide] | < 500
CC(NS(=O)(=O)C1CCC1)c1cn(CC2CCCC2)c2cc(-c3ccccc3C(F)(F)F)ccc12 (stereo not drawn) [Example 510, N-(1-(1-(cyclopentylmethyl)-6-(2-(trifluoromethyl)phenyl)-1H-indol-3-yl)ethyl)cyclobutanesulfonamide] | < 500
CC(C)(C)Cn1cc([C@H](NS(=O)(=O)C2CCC2)C(F)(F)F)c2cc(F)c(-c3c(F)cccc3C(F)(F)F)cc21 [Example 511, N-((1S)-2,2,2-trifluoro-1-(5-fluoro-6-(2-fluoro-6-(trifluoromethyl)phenyl)-1-neopentyl-1H-indol-3-yl)ethyl)cyclobutanesulfonamide] | 500 to 3000
CC1(Cn2cc([C@H](NS(=O)(=O)C3CCC3)C(F)(F)F)c3ccc(-c4ccccc4C(F)(F)F)cc32)CC1 [Example 512, (S)—N-(2,2,2-trifluoro-1-(1-((1-methylcyclopropyl)methyl)-6-(2-(trifluoromethyl)phenyl)-1H-indol-3-yl)ethyl)cyclobutanesulfonamide] | < 500
CC(C)(C)Cn1cc([C@H](NS(=O)(=O)C2CCC2)C(F)F)c2ccc(-c3ccccc3C(F)(F)F)cc21 [Example 513, (S)—N-(2,2-difluoro-1-(1-neopentyl-6-(2-(trifluoromethyl)phenyl)-1H-indol-3-yl)ethyl)cyclobutanesulfonamide] | < 500
C[C@H]1C[C@@H]1S(=O)(=O)N[C@@H](c1cn(CC(C)(C)C)c2cc(-c3ccccc3C(F)(F)F)ccc12)C(F)(F)F [Example 514, (1S,2S)-2-methyl-N—((S)-2,2,2-trifluoro-1-(1-neopentyl-6-(2-(trifluoromethyl)phenyl)-1H-indol-3-yl)ethyl)cyclopropane-1-sulfonamide] | < 500
CC(C)(C)Cn1cc([C@H](NS(=O)(=O)C2CC2(F)F)C(F)(F)F)c2ccc(-c3ccccc3C(F)(F)F)cc21 (stereo partly drawn) [Example 515, 2,2-difluoro-N—((S)-2,2,2-trifluoro-1-(1-neopentyl-6-(2-(trifluoromethyl)phenyl)-1H-indol-3-yl)ethyl)cyclopropane-1-sulfonamide] | 500 to 3000

More lines, now with the values ahead:

EC50 [nM] | SMILES
< 500 | CC(C)(C)Cn1cc(CCNS(=O)(=O)C2CC2)c2ccc(-c3cc(C(F)(F)F)ccc3Cl)cc21 [Example 484, N-(2-(6-(2-chloro-5-(trifluoromethyl)phenyl)-1-neopentyl-1H-indol-3-yl)ethyl)cyclopropanesulfonamide]
< 500 | CC1(Cn2cc([C@H](NS(=O)(=O)C3CC3)C(F)(F)F)c3cc(F)c(-c4ccccc4C(F)(F)F)cc32)COC1 [Example 489, N-[(1S)-2,2,2-trifluoro-1-[5-fluoro-1-[(3-methyloxetan-3-yl)methyl]-6-[2-(trifluoromethyl)phenyl]indol-3-yl]ethyl]cyclopropanesulfonamide]
< 500 | CC(C)(C)Cn1cc([C@H](NS(=O)(=O)C2CC2)C(F)(F)F)c2ccc(-c3ccccc3C(F)(F)F)nc21 [Example 491, N-[(1S)-1-[1-(2,2-dimethylpropyl)-6-[2-(trifluoromethyl)phenyl]pyrrolo[2,3-b]pyridin-3-yl]-2,2,2-trifluoro-ethyl]cyclopropanesulfonamide]
< 500 | CC(C)(C)Cn1cc([C@H](NS(=O)(=O)C2CCC2)C(F)(F)F)c2ccc(-c3ccccc3C(F)(F)F)nc21 [Example 492, N-[(1S)-1-[1-(2,2-dimethylpropyl)-6-[2-(trifluoromethyl)phenyl]pyrrolo[2,3-b]pyridin-3-yl]-2,2,2-trifluoro-ethyl]cyclobutanesulfonamide]
< 500 | CC(C)(C)Cn1cc([C@H](NS(=O)(=O)C2CCC2)C(F)(F)F)c2ccc(-c3ccccc3C(F)(F)F)cc21 [Example 494, (S)—N-(2,2,2-trifluoro-1-(1-neopentyl-6-(2-(trifluoromethyl)phenyl)-1H-indol-3-yl)ethyl)cyclobutanesulfonamide]
< 500 | CC(C)(C)Cn1cc([C@H](NS(=O)(=O)C2CCC2)C(F)(F)F)c2ccc(-c3ccccc3C#N)cc21 [Example 495, (S)—N-(1-(6-(2-cyanophenyl)-1-neopentyl-1H-indol-3-yl)-2,2,2-trifluoroethyl)cyclobutanesulfonamide]
< 500 | CC(C)(C)Cn1cc([C@H](NS(=O)(=O)C2CCC2)C(F)(F)F)c2ccc(-c3c(F)cccc3C(F)(F)F)cc21 [Example 496, (S)—N-(2,2,2-trifluoro-1-(6-(2-fluoro-6-(trifluoromethyl)phenyl)-1-neopentyl-1H-indol-3-yl)ethyl)cyclobutanesulfonamide]
< 500 | CC(C)(C)Cn1cc([C@H](NS(=O)(=O)C2CCC2)C(F)(F)F)c2ccc(-c3ccc(F)cc3C(F)(F)F)cc21 [Example 497, (S)—N-(2,2,2-trifluoro-1-(6-(4-fluoro-2-(trifluoromethyl)phenyl)-1-neopentyl-1H-indol-3-yl)ethyl)cyclobutanesulfonamide]
< 500 | CC(C)Cn1cc([C@H](NS(=O)(=O)C2CCC2)C(F)(F)F)c2ccc(-c3ccccc3C(F)(F)F)cc21 [Example 499, (S)—N-(2,2,2-trifluoro-1-(1-isobutyl-6-(2-(trifluoromethyl)phenyl)-1H-indol-3-yl)ethyl)cyclobutanesulfonamide]
< 500 | Cc1ccc2c([C@H](NS(=O)(=O)C3CCC3)C(F)(F)F)cn(CC(C)(C)C)c2c1 [Example 500, (S)—N-(2,2,2-trifluoro-1-(6-methyl-1-neopentyl-1H-indol-3-yl)ethyl)cyclobutanesulfonamide]
< 500 | CC(C)(C)Cn1cc([C@H](NS(=O)(=O)C2CCC2)C(F)(F)F)c2ccc(C3CC3)cc21 [Example 501, (S)—N-(1-(6-cyclopropyl-1-neopentyl-1H-indol-3-yl)-2,2,2-trifluoroethyl)cyclobutanesulfonamide]
< 500 | CCS(=O)(=O)NCCn1cc(CC(C)(C)C)c2cc(-c3ccc(C(F)(F)F)cc3C(F)(F)F)ccc21 [Example 502, N-(2-(5-(2,4-bis(trifluoromethyl)phenyl)-3-neopentyl-1H-indol-1-yl)ethyl)ethanesulfonamide]
< 500 | CC(C)(C)Cc1cn(CCNS(=O)(=O)C2CCCC2)c2ccc(-c3ccc(C(F)(F)F)cc3C(F)(F)F)cc12 [Example 503, N-(2-(5-(2,4-bis(trifluoromethyl)phenyl)-3-neopentyl-1H-indol-1-yl)ethyl)cyclopentanesulfonamide]
< 500 | CC(C)C(=O)n1cc([C@H](NS(=O)(=O)C2CCC2)C(F)(F)F)c2ccc(-c3ccccc3C(F)(F)F)cc21 [Example 504, (S)—N-(2,2,2-trifluoro-1-(1-isobutyryl-6-(2-(trifluoromethyl)phenyl)-1H-indol-3-yl)ethyl)cyclobutanesulfonamide]
< 500 | CC(C)C(=O)n1cc([C@H](NS(=O)(=O)C2CCC2)C(F)(F)F)c2cc(F)c(-c3ccccc3C(F)(F)F)cc21 [Example 505, (S)—N-(2,2,2-trifluoro-1-(5-fluoro-1-isobutyryl-6-(2-(trifluoromethyl)phenyl)-1H-indol-3-yl)ethyl)cyclobutanesulfonamide]
< 500 | CC(C)(C)Cn1cc([C@H](NS(=O)(=O)C2CCC2)C(F)(F)F)c2ccc(C3CCCC3)cc21 [Example 506, (S)—N-(1-(6-cyclopentyl-1-neopentyl-1H-indol-3-yl)-2,2,2-trifluoroethyl)cyclobutanesulfonamide]
